Experimental data: patent US8691864B2, “Agents useful for reducing amyloid precursor protein and treating dementia and methods of use thereof” (priority 2000, dated 2014)

Key:
βAPP = βAPP levels in SK-N-SH cells (conditioned media and cell lysates), western blot; type: cell-based, human
Description: SK-N-SH neuroblastoma cells were cultured on 60 mm dishes at a concentration of 3×10^6 cells, and SH-SY-5Y neuroblastoma and U373 astrocytorna cell lines were plated in 100 mm dishes at a concentration of 3×10^5 cells. The cells were allowed to grow in complete medium ([…], 2 mM glutamine in DMEM) for 3 to 4 days until they reached 70% confluence. To start the experiment, spent medium was removed and replaced with fresh medium (SKNSH—4 ml of DMEM+0.5% FBS; U373—5 ml of DMEM+2.5% FBS) containing 0, 5, or 50 μM phenserine. The cells were incubated at 37° C., 5% CO2 for the specific times indicated. Different media and sera were purchased from Life Technologies (Gaithersberg, Md.).
At each time point, the spent medium was collected and stored at −70° C. for later analysis of secretory βAPP levels. The cells were washed twice with PBS, pH 7.4 and incubated on ice for 15 min for lysis with 100 μL of lysis buffer (20 mM HEPES, 2 mM EGTA, 50 mM (β-glycophosphate, 1 mM sodium orthovanadate, 1% Triton X-100, 10% glycerol) containing appropriate protease inhibitors (2 mM PMSF, 100 μg/mL aprotinin, 25 μM leupeptin and 20 μg/mL soybean trypsin inhibitor). Each lysate was microcentrifuged for 15 min at 14 000 rpm. Protein levels of the supernatant were analyzed by the Bradford protein assay (BioRad, Melville, N.Y.).
Fifteen μg of protein from each sample was mixed with the appropriate volume of 5× Laemmli buffer and boiled for 5 min at 100° C. The samples were loaded onto a 10% NuPAGE Bis-Tris gel in 1×NuPAGE MOPS SDS running buffer (NOVEX, San Diego, Calif.) and the proteins separated at 200 V for 45 min. The gels then were transferred onto nitrocellulose at 25 V for 1.5 h. The blots were blocked with 5% non-fat dry milk in 10 mM Tris, pH 8.0 containing 150 mM NaCl for 1 h and washed twice for 15 min in large volumes of TBST (10 mM Tris, pH 8.0, 150 mM NaCl and 0.05% Tween 20). Each blot was probed for 2 h with either 22C11 anti-βAPP-terminal antibody (Boehringer Mannheim, Indianapolis, Ind.), diluted to a concentration of 2.5 μg/mL or anti-activated ERK antibody (Promega, Madison, Wis.), diluted to a concentration of 25 ng/mL. The blots were washed twice for 15 min in TBST and placed in secondary antibody, anti-mouse IgG- or anti-rabbit IgG conjugated to horse radish peroxidase (Sigma, St. Louis, Mo.), for 30 min. Three final TBST washes of 20 min duration each were performed before the samples were detected by chemiluminescence and exposed to film, as per the manufacturer's instructions (Amersham Life Science Inc., Arlington Heights, Ill.). Additionally, all blots also were stained with Ponceau S (Sigma, St. Louis, Mo.) to determine equivalent loading of samples. Densitometric quantification of blots was undertaken by using a […] and NIH-IMAGE (version 4.1).
Western blots of conditioned media (FIG. 4A) and cell lysates (FIG. 4B) were probed; with a N-terminal directed anti-βAPP antibody.
3×10^6 SK-N-SH cells were plated on 60 mm dishes with DMEM containing 10% FBS. After 36 hours, cells were incubated with low serum medium for 1 hour. Thereafter, the medium was replaced with fresh low serum medium (0.5% FBS). […] The cells were incubated with and without phenserine for 16 hours. At the stated time (4, 8 and 16 hrs), 200 μl of medium was transferred from each dish for assessment of extracellular APP levels. At the end of experiments (16 hrs), the cells were lysed and collected for assessment of intracellular APP levels.
15 μL of medium samples and 15 μg of total protein from each lysed samples were loaded onto 10% trys-glycine gels, and the protein was separated at 150 V for 90 min. The gels were transferred onto polyvinylidene difluoride paper and probed with an affinity-purified anti-APP antibody (22C11), which recognizes the ectodomain of APP (residues 66-81). The APP signals were detected by chemiluminescence and exposed to film. The quantitation of the signals was determined by using a CD camera and NIH-IMAGE (version 4.0). […]

SK-N-SH cells = test: LDH assay / cell number and viability, SK-N-SH cells; type: cell-based, human; details: for toxicity by cell number and viability (LDH measurement): SK-N-SH, cymserine and analogs
Excerpt: Measurement of released lactate dehydrogenase (LDH) in the conditioned medium was undertaken as a marker of cell viability and integrity, as described previously (Lahiri et al., 1997 and 1998).
This was not associated with cellular dysfunction, as determined by measurement of LDH levels versus untreated controls (FIG. 4C).

total Aβ peptide = test: total Aβ ELISA in SK-N-SH conditioned medium; type: cell-based, human; details: for Aβ peptide levels: cymserine and analogs
Description: Total Aβ peptide levels in SH-SY-SY and SK-N-SH cultured samples were assayed by a sensitive ELISA (Suzuki et al., 1994). For total Aβ measurements in conditioned medium, the rabbit polyclonal antibody #3160 (1-40 residues of Aβ) was used as a capture antibody for all species of Aβ peptide (Aβ1-40 and Aβ1-42) while monoclonal antibody 4G8 (17-25 residues of Aβ) was used to detect Aβ peptide levels, and the values were expressed as the mean of six independent assays.
Likewise, (+)-phenserine reduced BAPP protein levels and total Aβ peptide levels at 16 hours (FIG. 5).

cholinesterase = type: biochemical
SH-SY-5Y Cells = test: MTS toxicity assay in SHSY5Y cells; type: cell-based, human
secreted APP = test: ELISA for secreted APP in SHSY5Y cells; type: cell-based, human; details: 16 hours

| Compound | βAPP protein levels (βAPP; cymserine and analogs (FIG. 7)) | toxicity by cell number and viability (LDH measurement) (SK-N-SH cells) | toxicity at higher concentrations (SK-N-SH cells; higher concentrations) | Aβ peptide levels (total Aβ peptide) | anticholinesterase activity / action (cholinesterase) | βAPP protein levels (βAPP; 50 μM) | total Aβ peptide levels (total Aβ peptide; 50 μM) | APP Toxicity SH-SY-5Y Cells (MTS assay) (SH-SY-5Y Cells; Dose 2 uM) | APP Toxicity SH-SY-5Y Cells (MTS assay) (SH-SY-5Y Cells; Dose 6 uM) | APP Toxicity SH-SY-5Y Cells (MTS assay) (SH-SY-5Y Cells; Dose 20 uM) | APP Secretion by SH-SY-5Y Cells (secreted APP; Dose 2 uM) | APP Secretion by SH-SY-5Y Cells (secreted APP; Dose 6 uM) | APP Secretion by SH-SY-5Y Cells (secreted APP; Dose 20 uM) |
| --- | --- | --- | --- | --- | --- | --- | --- | --- | --- | --- | --- | --- | --- |
| CC(C)c1ccc(NC(=O)Oc2ccc3c(c2)[C@]2(C)CCNC2N3)cc1 (single isomer, unassigned; (-)) [(−)-N^1,N^8-bisnorcymserine] | reduced βAPP protein levels | no toxicity | toxic | also reduced | – | – | – | – | – | – | – | – | – |
| CC(C)c1ccc(NC(=O)Oc2ccc3c(c2)[C@@]2(C)CCN(C)[C@H]2N3C)cc1 [(+)-cymserine, (+)-Cymserine] | reduced βAPP protein levels | no toxicity | – | also reduced | devoid of it | – | – | – | – | – | – | – | – |
| CC(C)c1ccc(NC(=O)Oc2ccc3c(c2)[C@]2(C)CCN(C)[C@@H]2N3C)cc1 [(−)-cymserine] | reduced βAPP protein levels | no toxicity | – | also reduced | possessed anticholinesterase action | – | – | – | – | – | – | – | – |
| CNC(=O)Oc1ccc2c(c1)[C@]1(C)CCN(C)[C@@H]1N2C [(−)-physostigmine, reference compound] | – | – | – | – | – | no reduction or change | no reduction or change | – | – | – | – | – | – |
| COc1ccc2c(c1)[C@@](C)(CCN(C)C)C(=O)N2C [MES 9310] | – | – | – | – | – | – | – | 101.85 % vehicle control | 99.9 % vehicle control | 97.7 % vehicle control | 104.8 % vehicle control | 97.85 % vehicle control | 98.95 % vehicle control |
| CN(C)CC[C@]1(C)C(=O)N(C)c2ccc(O)cc21 [MES 9311] | – | – | – | – | – | – | – | 101.1 % vehicle control | 101.25 % vehicle control | 99.55 % vehicle control | 102.45 % vehicle control | 103.05 % vehicle control | 102.7 % vehicle control |
| CN1C(=O)C(=O)c2ccccc21 [MES 9312] | – | – | – | – | – | – | – | 99.95 % vehicle control | 103.85 % vehicle control | 106.95 % vehicle control | 105.4 % vehicle control | 101.7 % vehicle control | 96.65 % vehicle control |
| COc1ccc2c(c1)[C@](C)(CCN)C(=O)N2C.Cl [MES 9314] | – | – | – | – | – | – | – | 100.15 % vehicle control | 100.85 % vehicle control | 100.6 % vehicle control | 111.25 % vehicle control | 99.15 % vehicle control | 109.4 % vehicle control |
| COc1ccc2[nH]c3c(c2c1)CCN(C)C3 [MES 9316] | – | – | – | – | – | – | – | 99.15 % vehicle control | 98.05 % vehicle control | 98.75 % vehicle control | 104.15 % vehicle control | 98.45 % vehicle control | 102 % vehicle control |
| COC(=O)NCCC1C(=O)N(Cc2ccccc2)c2ccc(OC)cc21 (centres unmarked) [MES 9317] | – | – | – | – | – | – | – | 97.27 % vehicle control | 97.23 % vehicle control | 93.5 % vehicle control | 99.87 % vehicle control | 112.3 % vehicle control | 122 % vehicle control |
| COc1ccc2c(c1)[C@]1(C)CCOC1N2C (some centres unmarked) [MES 9318] | – | – | – | – | – | – | – | 96.2 % vehicle control | 96.45 % vehicle control | 96.05 % vehicle control | 104.05 % vehicle control | 103.4 % vehicle control | 108.75 % vehicle control |
| COc1ccc2c(c1)C(O)(c1ccccc1)C(=O)N2C (centres unmarked) [MES 9319] | – | – | – | – | – | – | – | 99.8 % vehicle control | 101.05 % vehicle control | 102.7 % vehicle control | 108.95 % vehicle control | 114.1 % vehicle control | 112.8 % vehicle control |
| COc1ccc2[nH]cc(CCN)c2c1.Cl [MES 9321] | – | – | – | – | – | – | – | 99.9 % vehicle control | 101.15 % vehicle control | 99.45 % vehicle control | 97.95 % vehicle control | 98.1 % vehicle control | 100.5 % vehicle control |
| COc1ccc2c(c1)C(C)(c1ccccc1)C(=O)N2C (centres unmarked) [MES 9324] | – | – | – | – | – | – | – | 102.15 % vehicle control | 100.4 % vehicle control | 98.65 % vehicle control | 110.3 % vehicle control | 95.9 % vehicle control | 99.95 % vehicle control |
| Br.CC1=C(c2ccc(O)cc2)CN2CCC[C@H]2C1.O [MES 9330] | – | – | – | – | – | – | – | 99.05 % vehicle control | 98.45 % vehicle control | 97.95 % vehicle control | 99.6 % vehicle control | 101.5 % vehicle control | 110.65 % vehicle control |
| Clc1ccc(C2CC3CCC2N3)cn1 (centres unmarked) [MES 9331] | – | – | – | – | – | – | – | 100.45 % vehicle control | 99.99 % vehicle control | 98.95 % vehicle control | 95.45 % vehicle control | 102.1 % vehicle control | 106.7 % vehicle control |
